Results taken from patent US6737383B1, “Herbicidal oxadiazolidines” (priority 1999, dated 2004).

Columns and labels:
blackgrass = assay: Test B pre/postemergence blackgrass; format: in vivo, Alopecurus myosuroides; details: Preemergence
In short: (§1)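 Test chemicals in a non-phytotoxic solvent mixture with surfactant were sprayed preemergence onto planted seeds and postemergence onto plants 2 to 18 cm tall (1- to 4-leaf stage). After twelve to sixteen days in a greenhouse, injury was visually rated against untreated controls from 0 (no effect) to 10 (complete control).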

bamyardgrass = assay: Test B flood test barnyardgrass; format: in vivo, Echinochloa crus-galli
In short: (§2)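 Each value is a visual injury score relative to controls, with 10 meaning complete control and 0 no effect. Evaluation took place twelve to sixteen days after the 2-leaf-stage plants were treated and kept in the greenhouse.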

crabgrass = assay: Test B pre/postemergence crabgrass; format: in vivo, Digitaria sanguinalis; details: Preemergence
In short: as §1

rice = assay: Test B flood test rice; format: in vivo, Oryza sativa
In short: as §2

surinam grass = assay: Test B pre/postemergence surinam grass; format: in vivo, Brachiaria decumbens; details: Preemergence
In short: as §1

giant foxtail = assay: Test B pre/postemergence giant foxtail; format: in vivo, Setaria faberii; details: Preemergence, scale of 0 to 10 where 0 is no effect and 10 is complete control
In short: as §1

smallflower flatsedge = assay: Test B flood test smallflower flatsedge; format: in vivo, Cyperus difformis
In short: as §2

wild oat = assay: Test B pre/postemergence wild oat; format: in vivo, Avena fatua; details: Preemergence, scale of 0 to 10 where 0 is no effect and 10 is complete control
In short: as §1

sugar beet = assay: Test B pre/postemergence sugar beet; format: in vivo, Beta vulgaris; details: Preemergence, scale of 0 to 10 where 0 is no effect and 10 is complete control
In short: as §1

pigweed = assay: Test B pre/postemergence pigweed; format: in vivo, Amaranthus retroflexus; details: Preemergence, scale of 0 to 10 where 0 is no effect and 10 is complete control
In short: as §1

purple nutsedge = assay: Test B pre/postemergence purple nutsedge; format: in vivo, Cyperus rotundus; details: Preemergence, scale of 0 to 10 where 0 is no effect and 10 is complete control
In short: as §1

cocklebur = assay: Test B pre/postemergence cocklebur; format: in vivo, Xanthium strumarium; details: Preemergence
In short: as §1

duck salad = assay: Test B flood test duck salad; format: in vivo, Heteranthera limosa
In short: as §2

rape = assay: Test B pre/postemergence rape; format: in vivo, Brassica napus; details: Preemergence, scale of 0 to 10 where 0 is no effect and 10 is complete control
In short: as §1

bedstraw = assay: Test B pre/postemergence bedstraw; format: in vivo, Galium aparine; details: Preemergence
In short: as §1

corn = assay: Test B pre/postemergence corn; format: in vivo, Zea mays; details: Preemergence
In short: as §1

morningglory = assay: Test B pre/postemergence morningglory; format: in vivo, Ipomoea hederacea; details: Preemergence, scale of 0 to 10 where 0 is no effect and 10 is complete control
In short: as §1

velvetleaf = assay: Test B pre/postemergence velvetleaf; format: in vivo, Abutilon theophrasti; details: Preemergence, scale of 0 to 10 where 0 is no effect and 10 is complete control
In short: as §1

soybean = assay: Test B pre/postemergence soybean; format: in vivo, Glycine max; details: Preemergence, scale of 0 to 10 where 0 is no effect and 10 is complete control
In short: as §1

wheat = assay: Test B pre/postemergence wheat; format: in vivo, Triticum aestivum; details: Preemergence, scale of 0 to 10 where 0 is no effect and 10 is complete control
In short: as §1

[1] = Rate 62 g/ha, scale of 0 to 10 where 0 is no effect and 10 is complete control
[2] = Rate 125 g/ha, scale of 0 to 10 where 0 is no effect and 10 is complete control
[3] = Rate 250 g/ha, scale 0 to 10 (0 no effect, 10 complete control)
[4] = Rate 500 g/ha, scale of 0 to 10 where 0 is no effect and 10 is complete control
[5] = Rate 62 g/ha, flood test species, Pre-emergence, visual evaluation after twelve to sixteen days
[6] = Rate 125 g/ha, under heading Pre-emergence, flood test species, visual evaluation after twelve to sixteen days
[7] = Rate 250 g/ha, Pre-emergence (flood test species), scale 0 to 10, 0 is no effect, 10 is complete control
[8] = Rate 500 g/ha, Pre-emergence section of Table B, 0 to 10 scale (0 no effect, 10 complete control)

## CC(C)N(C(=O)n1oc(=O)n(C(C)C2CC2)c1=O)c1ccccc1 (stereo not drawn) [Compound 699]
blackgrass; [1]
  Blackgrass plant response rating: 8
blackgrass; [2]
  Plant response rating, Blackgrass: 10
blackgrass; [3]
  Plant response rating, Blackgrass: 10
blackgrass; [4]
  Plant response rating, Blackgrass: 10
bamyardgrass; [5]
  Plant response rating, Barnyardgrass (0 to 10 scale, 0 is no effect, 10 is complete control): 4
bamyardgrass; [6]
  Barnyardgrass plant response rating (0 to 10 scale, 0 is no effect, 10 is complete control): 4
bamyardgrass; [7]
  Barnyardgrass plant response rating: 8
bamyardgrass; [8]
  Barnyardgrass plant response rating: 8
crabgrass; [1]
  Crabgrass plant response rating: 10
crabgrass; [2]
  Plant response rating, Crabgrass: 10
crabgrass; [3]
  Plant response rating, Crabgrass: 10
rice; [5]
  Plant response rating, Rice (0 to 10 scale, 0 is no effect, 10 is complete control): 0
rice; [6]
  Rice plant response rating (0 to 10 scale, 0 is no effect, 10 is complete control): 0
rice; [7]
  Rice plant response rating: 5
rice; [8]
  Rice plant response rating: 4
Surinam grass; [1]
  B. signalgrass plant response rating: 8
Surinam grass; [2]
  Plant response rating, B. signalgrass: 9
Surinam grass; [3]
  Plant response rating, B. signalgrass: 9
Surinam grass; [4]
  Plant response rating, B. signalgrass: 10
Giant foxtail; Rate 62 g/ha
  Giant foxtail plant response rating: 10
Giant foxtail; Rate 125 g/ha
  Plant response rating, Giant foxtail: 10
Smallflower flatsedge; [5]
  Plant response rating, S. Flatsedge (0 to 10 scale, 0 is no effect, 10 is complete control): 6
Smallflower flatsedge; [6]
  S. Flatsedge plant response rating (0 to 10 scale, 0 is no effect, 10 is complete control): 7
Smallflower flatsedge; [7]
  S. Flatsedge plant response rating: 9
Smallflower flatsedge; [8]
  S. Flatsedge plant response rating: 8
Wild oat; Rate 62 g/ha
  Wild oats plant response rating: 9
Wild oat; Rate 125 g/ha
  Plant response rating, Wild oats: 10
Sugar beet; Rate 62 g/ha
  Sugarbeets plant response rating: 3
Sugar beet; Rate 125 g/ha
  Plant response rating, Sugarbeets: 4
pigweed; Rate 62 g/ha
  Redroot pigweed plant response rating: 3
pigweed; Rate 125 g/ha
  Plant response rating, Redroot pigweed: 3
Purple nutsedge; Rate 62 g/ha
  Nutsedge plant response rating: 0
Purple nutsedge; Rate 125 g/ha
  Plant response rating, Nutsedge: 0
cocklebur; [1]
  Cocklebur plant response rating: 0
cocklebur; [2]
  Plant response rating, Cocklebur: 0
cocklebur; [3]
  Plant response rating, Cocklebur: 0
cocklebur; [4]
  Plant response rating, Cocklebur: 0
Duck salad; [5]
  Plant response rating, Ducksalad (0 to 10 scale, 0 is no effect, 10 is complete control): 3
Duck salad; [6]
  Ducksalad plant response rating (0 to 10 scale, 0 is no effect, 10 is complete control): 8
Duck salad; [7]
  Ducksalad plant response rating: 9
Duck salad; [8]
  Ducksalad plant response rating: 9
rape; Rate 62 g/ha
  Rape plant response rating: 0
rape; Rate 125 g/ha
  Plant response rating, Rape: 2
bedstraw; [1]
  Bedstraw plant response rating: 0
bedstraw; [3]
  Plant response rating, Bedstraw: 0
bedstraw; [4]
  Plant response rating, Bedstraw: 0
corn; [1]
  Corn plant response rating: 3
corn; [2]
  Plant response rating, Corn: 6
corn; [3]
  Plant response rating, Corn: 8
morningglory; Rate 62 g/ha
  Morningglory plant response rating: 2
morningglory; Rate 125 g/ha
  Plant response rating, Morningglory: 4
velvetleaf; Rate 62 g/ha
  Velvetleaf plant response rating: 0
velvetleaf; Rate 125 g/ha
  Plant response rating, Velvetleaf: 2
soybean; Rate 62 g/ha
  Soybean plant response rating: 0
soybean; Rate 125 g/ha
  Plant response rating, Soybean: 2
wheat; Rate 62 g/ha
  Wheat plant response rating: 0
wheat; Rate 125 g/ha
  Plant response rating, Wheat: 3
